# Measurements reported in paper PMC11704008 (Scientific Reports, 2025).
# Like-named read-outs stand apart in the source and are kept apart here.
# Experiments:
# [1] = type: physicochemical
# [2] = type: physicochemical; remark: listed apart in the source
structure (smiles),measurement,setting,value
"C[C@](N)(Cc1ccc(O)c(O)c1)C(=O)O [methyldopa, Methyldopa]",solvation heat (ΔHsol),[1]; difference between ΔHvap and ΔHtotal,-5.382 kcal/mol
same,"total heat (∆Htotal), Chrastil model",[1]; methyldopa in ScCO2,8.21 kcal/mol
same,"vaporization heat (∆Hvap), Bartle et al. model",[1]; methyldopa in ScCO2,13.59 kcal/mol
same,y × 10^5 (mole fraction in ScCO2),"[2]; 313 K, 12 MPa, CO2 density 719.2 kg.m^−3",2.481
same,y × 10^5 (mole fraction in ScCO2),"[2]; 313 K, 15 MPa, CO2 density 781.2 kg.m^−3",3.013
same,y × 10^5 (mole fraction in ScCO2),"[2]; 313 K, 18 MPa, CO2 density 820.7 kg.m^−3",3.942
same,y × 10^5 (mole fraction in ScCO2),"[2]; 313 K, 21 MPa, CO2 density 850.4 kg.m^−3",4.531
same,y × 10^5 (mole fraction in ScCO2),"[2]; 313 K, 24 MPa, CO2 density 873.9 kg.m^−3",5.520
same,y × 10^5 (mole fraction in ScCO2),"[2]; 313 K, 27 MPa, CO2 density 893.5 kg.m^−3",6.320
same,y × 10^5 (mole fraction in ScCO2),"[2]; 313 K, 30 MPa, CO2 density 910.3 kg.m^−3",7.652
same,y × 10^5 (mole fraction in ScCO2),"[2]; 323 K, 12 MPa, CO2 density 587.2 kg.m^−3",1.880
same,y × 10^5 (mole fraction in ScCO2),"[2]; 323 K, 15 MPa, CO2 density 701.1 kg.m^−3",3.390
same,y × 10^5 (mole fraction in ScCO2),"[2]; 323 K, 18 MPa, CO2 density 758.8 kg.m^−3",4.490
same,y × 10^5 (mole fraction in ScCO2),"[2]; 323 K, 21 MPa, CO2 density 797.4 kg.m^−3",5.910
same,y × 10^5 (mole fraction in ScCO2),"[2]; 323 K, 24 MPa, CO2 density 826.1 kg.m^−3",7.114
same,y × 10^5 (mole fraction in ScCO2),"[2]; 323 K, 27 MPa, CO2 density 851.7 kg.m^−3",7.790
same,y × 10^5 (mole fraction in ScCO2),"[2]; 323 K, 30 MPa, CO2 density 871.5 kg.m^−3",8.832
same,y × 10^5 (mole fraction in ScCO2),"[2]; 333 K, 12 MPa, CO2 density 435.3 kg.m^−3",1.520
same,y × 10^5 (mole fraction in ScCO2),"[2]; 333 K, 15 MPa, CO2 density 606.8 kg.m^−3",2.841
same,y × 10^5 (mole fraction in ScCO2),"[2]; 333 K, 18 MPa, CO2 density 688.4 kg.m^−3",5.090
same,y × 10^5 (mole fraction in ScCO2),"[2]; 333 K, 21 MPa, CO2 density 740.3 kg.m^−3",7.050
same,y × 10^5 (mole fraction in ScCO2),"[2]; 333 K, 24 MPa, CO2 density 777.5 kg.m^−3",8.125
same,y × 10^5 (mole fraction in ScCO2),"[2]; 333 K, 27 MPa, CO2 density 806.7 kg.m^−3",9.163
same,y × 10^5 (mole fraction in ScCO2),"[2]; 333 K, 30 MPa, CO2 density 830.5 kg.m^−3",9.960
same,y × 10^5 (mole fraction in ScCO2),"[2]; 343 K, 12 MPa, CO2 density 346.1 kg.m^−3",0.805
same,y × 10^5 (mole fraction in ScCO2),"[2]; 343 K, 15 MPa, CO2 density 507.5 kg.m^−3",2.043
same,y × 10^5 (mole fraction in ScCO2),"[2]; 343 K, 18 MPa, CO2 density 613.5 kg.m^−3",5.410
same,y × 10^5 (mole fraction in ScCO2),"[2]; 343 K, 21 MPa, CO2 density 678.9 kg.m^−3",7.484
same,y × 10^5 (mole fraction in ScCO2),"[2]; 343 K, 24 MPa, CO2 density 724.9 kg.m^−3",8.632
same,y × 10^5 (mole fraction in ScCO2),"[2]; 343 K, 27 MPa, CO2 density 760.3 kg.m^−3",10.061
same,y × 10^5 (mole fraction in ScCO2),"[2]; 343 K, 30 MPa, CO2 density 788.9 kg.m^−3",11.345
same,solubility at 5 h,"[2]; solubility S in ScCO2, range over all conditions, 12–30 MPa, 313–343 K",13.4 to 428 µg/mL
